Patent US6013672A, “Agonists of metabotropic glutamate receptors and uses thereof” (UAB Research Foundation, priority 1997, dated 2000)
Where two headings read alike, the source gives them in different places.

Assays:
hippocampal astrocytes [1] = test: 3H-D-aspartate (glutamate/aspartate) uptake in astrocytes; format: cell-based, rat; conditions: Rattus norvegicus, Astrocyte; 0.5 mM, 24 hour exposure; average of 25 experiments; read-out: glutamate/aspartate uptake enhanced by
Experimental: Uptake procedures were essentially identical to those previously described (Kimelberg et al. 1989; Ye et al., 1996). Briefly, 5-10 minutes before assessing uptake, astrocytes were washed and kept in a solution containing (in mM): NaCl 122, KCl 3, MgSO4 0.4, KH2 PO4 1.2, NaHCO3 25, D-glucose 10, and CaCl2 1.3, at 37° C., bubbled with 5%/95% CO2 /O2. Then the cells were switched to the above solution supplemented with 0.1 mM D-aspartate and 0.4 μCi/ml ^3 H-D-aspartate. Glutamate/aspartate uptake was determined over a 10 or 30 minutes period and was terminated by three quick washes, twice with ice cold 0.29 M sucrose solution with 10 mM Tris Nitrate, 0.5 mM Ca(NO3)2, (pH 7.40 by NaOH) and then with ice cold PBS. Cells were then harvested after a 30 minute incubation in 0.3 N NaOH solution (37° C.) and ^3 H activity was determined in a liquid scintillation counter (Beckman). Total uptake was normalized to protein content to eliminate variability due to cell number. Protein levels were determined using the bicinchoninic acid (BCA) assay (Pierce; Rockford, Ill.).

hippocampal astrocytes [2] = test: Removal of an exogenous glutamate challenge by astrocyte cultures, [Glu]o over time; format: cell-based, rat
Experimental: The bioluminescence method for detection was used for glutamate in solution as described by Fosse et al. (1986) with only minor modifications. The glutamate-specific reagent mixture contained potassium phosphate (pH 7.0) 25 mM, Triton X-100 40 μg/ml, dithiothreitol 100 μM, Myristyl aldehyde 40 μM (Aldrich; Milwaukee, Wis.), β-NAD 2 mM, ADP 250 μM, FMN 2.5 μM, luciferase 40 μg/ml, NAD(P)H:FMN oxidoreductase 400 mU/ml, glutamate dehydrogenase 0.5 mg/ml. All experiments were performed with a Monolight 2010 luminomitor (Analytical Luminescence Lab; Ann Arbor, Mich.).
(§1) For experiments in which [Glu]o concentrations were assessed by the bioluminescence method, cells were maintained in glutamate-depleted medium in the presence or absence of the agonists/antagonist combination of interest. To assess chronic effects, glutamate analogues were applied for 24 hours unless indicated otherwise. After the incubation period, the stimulation media (containing drugs of interest) were aspirated and cells were washed twice with MEM and allowed to remain for 30 to 60 minutes in drug free MEM supplemented with 20 mM glucose prior to taking media samples for glutamate measurements. To assess acute drug effects, untreated cells were washed and the reagent of interest applied in glucose supplemented MEM. Cells were harvested in 0.3 N NaOH and neutralized with 0.3 N HCl. Aliquots were stored in -20° C. for protein and [Glu]i determination. Glutamate standards used for calibration were prepared in MEM (For [Glu]i in 0.15 N NaCl).
To delineate the role of mGluR receptors on [Glu]o levels, hippocampal astrocytes were challenged with 50 μM glutamate and cells that were pretreated with trans-ACPD were compared to control cultures (FIG. 2A). Control astrocytes rapidly remove glutamate from the medium, and after ≈3 hours, [Glu]o stabilized at values to 1 μM. […] Mean values were 0.96±0.1 μM in control astrocytes, as compared to 0.18±0.03 μM in trans-ACPD treated astrocytes.
Glutamate undoubtedly is the endogenous ligand for mGluRs. However, it was necessary to establish whether glutamate itself can induce the modulation in glutamate levels observed, and thus can mimic the modulatory effects observed with ACPD. These studies are difficult since, unlike ACPD, glutamate is also a substrate for the transporter, and therefore, is readily removed. Experiments were carried out in two ways, each yielding similar results. First, cells were preincubated for 24 hours with 100 μM glutamate, then washed and [Glu]o measured in MEM, or secondly, glutamate was directly applied in MEM and changes in [Glu]o were monitored.

[3] = system: rat hippocampal brain slices; test: THA-induced glutamate release in acute hippocampal brain sections; format: cell-based; conditions: 400 min pretreatment
Text: This was accomplished using THA, a heteroexchange drug that is also a substrate for the glutamate transporter. For each molecule of THA transported into the cell, one molecule of glutamate is released. Therefore, THA allows the induction of glutamate release.

hippocampal astrocytes [4] = test: Extracellular glutamate [Glu]o released by astrocyte cultures (bioluminescence); format: cell-based, rat; conditions: for activity at 100 µM: read-out: % of control [Glu]0
glial cells = test: Glial glutamate uptake and extracellular glutamate with MPTP/MPP+ and t-ACPD; format: cell-based
Experimental: The normally low glutamate levels in the brain are established and maintained in glial cells by non-vesicular uptake of glutamate through a Na^+ -dependent transporter (FIG. 14). Once taken up, glutamate can be converted to glutamine and recycled for neurotransmitter synthesis in neurons (FIG. 14). If glial cells in culture are exposed to high glutamate concentrations (e.g., 100 μM), they will remove it from the extracellular space and essentially "detoxify" the neuronal environment. […] Under those conditions, extracellular glutamate levels are elevated to 7 μM (FIG. 16), which is toxic to most surrounding neurons.
Impaired glial glutamate transport may contribute to the loss of dopaminergic neurons in Parkinson's disease. Thus, stimulation of this pathway would be neuroprotective. A drug and its receptor on glial cells was identified that allows enhanced glutamate detoxification. Specifically, trans-ACPD (trans-1-amino-1,3-cyclopentane dicarboxylic acid) (t-ACPD), a group II metabotropic glutamate receptor agonist, enhanced glial glutamate uptake (FIG. 17). It's actions were 2-fold; (i) it enhanced glutamate uptake by up to 80%, and (ii) it decreased non-specific release of glutamate, effectively trapping glutamate inside glial cells. In fact, the release of glutamate decreased to such a large extent that it almost made the transporter rectify, e.g. allowing only influx and preventing outflow of glutamate (FIG. 18). […] Using antibodies and further pharmacological studies, the receptor that is responsible for these effects has been identified as mGluR2/3.
In Parkinson's disease, it is believed that neurons may die of excitotoxic exposure to glutamate. The present invention determined that MPTP directly effects glutamate uptake into astrocytes (FIG. 21, top left). […] This increased release may be sufficient to explain some of the subsequent neurodegeneration.

hippocampal astrocytes [5] = test: Intracellular glutamate content [Glu]i of astrocytes; format: cell-based, rat; conditions: Rattus norvegicus, Astrocyte, 24 h; highest dose used (1 mM), chronic treatment
Experimental: as §1, with “To assess chronic effects, glutamate analogues were applied for 24 hours unless indicated otherwise.” left out

GLT-1 = conditions: cited from earlier work
dopaminergic neurons = test: Cell death of dopaminergic neurons induced by glutamate or MPTP; format: cell-based, rat
Experimental: Cell death of dopaminergic neurons induced by glutamate, and the role of glial glutamate transport in protection of cell death at the cellular level were studied as it relates to Parkinson's disease. […] Thus, glutamate concentrations as low as 3-5 μM induced rapid cell death (FIGS. 11 and 12). Glutamate concentrations were also measured in the normal brain. They are typically around 1 μM, below the toxic level for dopaminergic neurons. […] This late onset of glutamate toxicity is compatible with the late onset of Parkinson's disease.

[6] = 500 μM for 24 hour before 50 μM glutamate challenge

In the case of `N[C@@]1(C(=O)O)CC[C@@H](C(=O)O)C1` (relative stereo) [trans-ACPD, trans-1-aminocyclopentane-1,3-dicarboxylic acid], the activation at 500 µM (hippocampal astrocytes [1]) is reported as 31 ± 2.7%, the “steady-state [Glu]o after glutamate challenge” value (hippocampal astrocytes [2]; [6]) is reported as 0.18 ± 0.03 µM and the “steady-state [Glu]o lower than in control cultures” value (hippocampal astrocytes [2]; [6]) is reported as 5 fold. For the same molecule, the “reduction of THA-induced glutamate release” value [3] was “≈ 40%”, the activity at 100 µM (hippocampal astrocytes [4]; Rattus norvegicus, Astrocyte, 432 h, cells P9, 18 days in vitro, 250 μM agonist) was 46.3 ± 4.3% and the activity at 100 µM (hippocampal astrocytes [4]; Rattus norvegicus, Astrocyte, 432 h, cells P23, 18 days in vitro, 200 μM agonist) was 12.4 ± 1.2%. The activity at 100 µM (hippocampal astrocytes [4]; Rattus norvegicus, Astrocyte, 456 h, cells P21, 19 days in vitro, 100 μM agonist) was 23.1 ± 1.4%, the activity at 100 µM (hippocampal astrocytes [4]; Rattus norvegicus, Astrocyte, 624 h, cells P15, 26 days in vitro, 100 μM agonist) was 20 ± 6.1% and the activity at 100 µM (hippocampal astrocytes [4]; Rattus norvegicus, Astrocyte, 672 h, cells P2, 28 days in vitro, 500 μM agonist) was 78.2 ± 10.1%. It also gave an activity at 100 µM (hippocampal astrocytes [4]; Rattus norvegicus, Astrocyte, cells P0, 60 days in vitro, 100 μM agonist) of 60.6 ± 6.3%, an activity at 100 µM (hippocampal astrocytes [4]; Rattus norvegicus, Astrocyte, cells P2, 25 days in vitro, 500 μM agonist) of 59.6 ± 10.1% and an activity at 100 µM (hippocampal astrocytes [4]; Rattus norvegicus, Astrocyte, cells P2, 34 days in vitro, 100 μM agonist) of 51.3 ± 5.7%. For the same molecule, the activity at 100 µM (hippocampal astrocytes [4]; Rattus norvegicus, Astrocyte, cells P40, 31 days in vitro, 100 μM agonist) was 19.5 ± 2.7%, the “enhancement of glutamate uptake” value (glial cells) was “up to 80%” and the “reduction of extracellular glutamate levels versus control” value (glial cells; neuron-glial cocultures (FIG. 19)) was “up to 100%”.
With `N[C@@]1(C(=O)O)CC[C@@H](C(=O)O)C1` [1S3R-ACPD, (1S,3R)-1-aminocyclopentane-1,3-dicarboxylic acid] the activation at 500 µM (hippocampal astrocytes [1]) was 31 ± 2.7%, the activity at 1000 µM (hippocampal astrocytes [5]) was 85.2 ± 5.1% and the “more effective than 1R3S-ACPD in reducing glutamate release” value (hippocampal astrocytes [4]) was “≈ 100 fold”. For the same molecule, the “time to steady-state [Glu]o, acute application” value (hippocampal astrocytes [4]; 50 μM in glutamate-free MEM) was “≈ 2 hours”, the “steady-state [Glu]o, acute application” value (hippocampal astrocytes [4]; 50 μM in glutamate-free, glucose-supplemented MEM) was 0.3 to 0.4 µM and the “THA-induced glutamate release lower in treated cells” value (hippocampal astrocytes [4]; 100 μM for 24 hours pretreatment, any THA concentration) was 3-5 fold. For the same molecule, the “swelling induced glutamate release” value (hippocampal astrocytes [4]; 100 μM, 24 h pretreatment, hypotonic 153 mOsm) was “inhibited swelling induced glutamate release to some extent”, the “preincubation time for maximal effects” value (hippocampal astrocytes [4]; 200 μM) was “≈ 14 hours” and the “ET50 of attenuation of [Glu]o versus preincubation time” value (hippocampal astrocytes [4]; 200 μM, preincubation 0.5-36 hours) was “≈ 1 hour”. The “order of potency in mimicking ACPD effect on glutamate release” value (hippocampal astrocytes [4]; FIG. 7B) was “S-4CPG>1S3R-ACPD>L-CCG-I>1S3S-ACPD=QA”, the activity at 200 µM (hippocampal astrocytes [4]; Rattus norvegicus, Astrocyte, 14 h, 200 μM, ≈14 hours preincubation, read-out: [Glu]o levels at maximal effect) was under 30% and the activity at 100 µM (hippocampal astrocytes [4]; Rattus norvegicus, Astrocyte, 408 h, cells P22, 17 days in vitro, 100 μM agonist) was 17.3 ± 1.2%. The activity at 100 µM (hippocampal astrocytes [4]; Rattus norvegicus, Astrocyte, 408 h, cells P22, 17 days in vitro, 200 μM agonist) was 14.8 ± 4.3%, the activity at 100 µM (hippocampal astrocytes [4]; Rattus norvegicus, Astrocyte, 480 h, cells P16, 20 days in vitro, 10 μM agonist) was 32.5 ± 4.7% and the activity at 100 µM (hippocampal astrocytes [4]; Rattus norvegicus, Astrocyte, 528 h, cells P2, 22 days in vitro, 100 μM agonist) was 73.4 ± 2.9%. For the same molecule, the activity at 100 µM (hippocampal astrocytes [4]; Rattus norvegicus, Astrocyte, 528 h, cells P13, 22 days in vitro, 100 μM agonist) was 34.1 ± 5.6%, the activity at 100 µM (hippocampal astrocytes [4]; Rattus norvegicus, Astrocyte, 552 h, cells P9, 23 days in vitro, 100 μM agonist) was 45.8 ± 11.9% and the activity at 100 µM (hippocampal astrocytes [4]; Rattus norvegicus, Astrocyte, cells P2, 30 days in vitro, 100 μM agonist) was 66.9 ± 9.9%. The activity at 100 µM (hippocampal astrocytes [4]; Rattus norvegicus, Astrocyte, cells P9, 36 days in vitro, 100 μM agonist) was 66.5 ± 6.29%, the activity at 100 µM (hippocampal astrocytes [4]; Rattus norvegicus, Astrocyte, cells P10, 32 days in vitro, 250 μM agonist) was 24.1 ± 7.8% and the activity at 100 µM (hippocampal astrocytes [4]; Rattus norvegicus, Astrocyte, cells P22, 40 days in vitro, 250 μM agonist) was 29 ± 5.4%. The EC50 (hippocampal astrocytes [4]; Rattus norvegicus, Astrocyte, 24 hours treatment, dose-effect curve, read-out: EC50, reduction of glutamate release) was 2 to 5 µM and the “effect on [Glu]o / glutamate release” value (hippocampal astrocytes [4]; cells treated for 24 hours, then MEM) was “reduce [Glu]o in a dose-dependent manner”.
With `N[C@@H](CCC(=O)O)C(=O)O` [glutamate] the “duration of glutamate undershoot” value (hippocampal astrocytes [2]; 100 μM glutamate) was “approximately 10 hours”, the “THA induced glutamate release during undershoot” value (hippocampal astrocytes [2]; 100 μM glutamate several hours before, 200 μM THA) was “induced less glutamate release” and the “[Glu]o undershoot level after glutamate challenge” value (hippocampal astrocytes [2]; 100 μM glutamate, P22 astrocyte culture) was “≈ 0.4 μM”. The Km (GLT-1) was 2 µM, the IC50 (dopaminergic neurons) was about 5 µM and the neuronal cell death (dopaminergic neurons; 0.03 mM) was “neurotoxic to most neurons”. For the same molecule, the “susceptibility of neurons to glutamate by age” value (dopaminergic neurons; adult rats (>30 days)) was “highest glutamate sensitivity”, the “glutamate concentrations inducing rapid cell death” value (dopaminergic neurons; rat) was 3 to 5 µM and the “susceptibility of neurons to glutamate by age” value (dopaminergic neurons; young rats) was “relatively insensitive”.
